The results in this text go back to patent US12054498B2, “Heteroaromatic macrocyclic ether chemotherapeutic agents” (Nuvalent, Inc., priority 2020, dated 2024).

For experiment [1], the target named is T1, Ba/F3 cells EML4-ALK L1196M/G1202R (variant 1) (Homo sapiens, UniProt Q9UM73, G1202R/L1196M).
T1 construct: echinoderm microtubule-associated protein-like 4 (EML4) gene and the ALK tyrosine kinase domain; host or cells: Ba/F3 (RIKEN), retroviral pMSCV-puro; the other entry of the earlier key: EML4 (Q9HC35, Echinoderm microtubule-associated protein-like 4)
The experiment can be described thus: Ba/F3 cell proliferation assay, EML4-ALK L1196M/G1202R (variant 1). Type of experiment: cell-based. The settings on record: 72 hours, CellTiter-Glo. The method, boiled down: (§1)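 IL-3-independent Ba/F3 lines stably expressing the fusion kinase (retroviral, puromycin-selected), 1,000 cells/well, treated with 3-fold compound dilutions for 72 h. Viability by CellTiter-Glo luminescence; IC50 from four-parameter logistic fit of percent inhibition.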

The test system of experiment [2] is TPM3-NTRK1-wt IC50 / primary target IC50 (e.g. CD74-ROS1-wt). Put plainly: TRKA selectivity in Ba/F3 cells (TRKA potency divided by primary target potency). In kind it is cell-based. The note with it: for TPM3-NTRK1-wt/CD74-ROS1-G2032R selectivity ratio: TRKA potency / CD74-ROS1-G2032R potency; for TPM3-NTRK1-wt/CD74-ROS1-wt selectivity ratio: TRKA potency / CD74-ROS1-wt potency; for TPM3-NTRK1-wt/EML4-ALK-L1196M-G1202R selectivity ratio: TRKA potency / EML4-ALK-L1196M-G1202R potency; for TPM3-NTRK1-wt/EML4-ALK-wt selectivity ratio: TRKA potency / EML4-ALK-wt potency. On the procedure:
TRKA selectivity was calculated by dividing a compound's TRKA potency by its primary target potency (e.g. TPM3-NTRK1-wt IC50/CD74-ROS1-wt IC50). Compound selectivity can be interpreted by binning ratio values: bin A for very high selectivity, ratio >30-fold; bin B for high selectivity, ratio >10-fold; bin C for moderate selectivity, ratio ≥1; and bin D for low selectivity, ratio <1. […] (nd=not determined).

For another experiment, the target named is T2, ALK-wt (Homo sapiens, UniProt Q9UM73).
T2 construct: purchased Carna 08-518
The experiment can be described thus: Biochemical kinase assay, ALK-wt kinase domain. The note with it: apparent inhibitory constant, Morrison equation; ATP 2 mM in substrate solution; read-out: ALK-wt Ki^app. The method, boiled down: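 Apparent Ki values come from fitting initial reaction rates against inhibitor concentration to the Morrison equation. Rates were taken from the linear phase of fluorogenic substrate phosphorylation (AQT0101 for ALK and ROS1, AQT0104 for TRKA; 26 μM in substrate solution with 2 mM ATP), monitored at 485 nm over 120 min at 30° C.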

The target in another experiment is T3, ALK L1196M/G1202R (Homo sapiens, UniProt Q9UM73, G1202R/L1196M).
T3 construct: purchased SignalChem A19-12NG
Put plainly: Biochemical kinase assay, ALK L1196M/G1202R kinase domain. The settings on record: apparent inhibitory constant, Morrison equation; ATP 2 mM in substrate solution; read-out: ALK-L1196M-G1202R Ki^app. Put shortly: (§2)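 Kinase domains (in kinase solution: ROS1-G2032R 0.5 nM, ROS1-wt 0.6 nM, TRKA 1 nM, ALK L1196M/G1202R 3 nM) were mixed with compound and a substrate solution of 2 mM ATP plus 26 μM fluorogenic AQT0101 (ALK, ROS1) or AQT0104 (TRKA) in HEPES pH 7.5/MgCl2. Fluorescence was followed for 120 min at 30° C; Ki^app was obtained by Morrison fit of initial rates.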

The target of experiment [3] is T4, Ba/F3 cells CD74-ROS1 wild-type (wt) (Homo sapiens, UniProt P08922).
T4 construct: fusion of the C-terminus of ROS1 with the N-terminus of various partner proteins; host or cells: Ba/F3 (RIKEN), retroviral pMSCV-puro; the other entry of the earlier key: CD74 (P04233, HLA class II histocompatibility antigen gamma chain)
The experiment can be described thus: Ba/F3 cell proliferation assay, CD74-ROS1 wild-type. In kind it is cell-based. The note with it: 72 hours, CellTiter-Glo. The method, boiled down: (§3)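 IL-3-independent Ba/F3 CD74-ROS1 lines, puromycin-selected monoclones; 1,000 cells/well, plated 1 d before dosing; 3-fold serial dilutions, 72 h; CellTiter-Glo luminescence; IC50 by 4-parameter logistic regression.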
On the technique in general: ATP-based viability assays read luminescence as a measure of living cells.

In the next experiment the target is T5, ROS1-wt (Homo sapiens, UniProt P08922).
T5 construct: purchased Carna 08-163
The experiment can be described thus: Biochemical kinase assay, ROS1-wt kinase domain. The note with it: apparent inhibitory constant, Morrison equation; ATP 2 mM in substrate solution; read-out: ROS1-wt Ki^app. Put shortly: (§4)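 Compounds, as 100-fold DMSO stocks, were dispensed first, then substrate mix was added (ATP 2 mM, AQT0101 26 μM, in 50 mM HEPES pH 7.5/10 mM MgCl2). Reactions ran at 30 °C with fluorescence logged every 2 min over 120 min. Apparent inhibition constants came from fitting rates to Morrison's tight-binding equation.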

The target in experiment [4] is T6, Ba/F3 cells CD74-ROS1 G2032R (Homo sapiens, UniProt P08922, G2032R).
T6 construct: fusion of the C-terminus of ROS1 with the N-terminus of various partner proteins; host or cells: Ba/F3 (RIKEN), retroviral pMSCV-puro; the other entry of the earlier key: CD74 (P04233, HLA class II histocompatibility antigen gamma chain)
The experiment can be described thus: Ba/F3 cell proliferation assay, CD74-ROS1 G2032R. Type of experiment: cell-based. The settings on record: 72 hours, CellTiter-Glo. Put shortly: as §3

The target in another experiment is T7, ROS1-G2032R (Homo sapiens, UniProt P08922, G2032R).
T7 construct: purchased SignalChem R14-12BG
The experiment can be described thus: Biochemical kinase assay, ROS1-G2032R kinase domain. The note with it: apparent inhibitory constant, Morrison equation; ATP 2 mM in substrate solution; read-out: ROS1-G2032R Ki^app. Put shortly:
as §4

Experiment [5] addresses T8, Ba/F3 cells EML4-ALK wt (variant 1) (Homo sapiens, UniProt Q9UM73).
T8 construct: echinoderm microtubule-associated protein-like 4 (EML4) gene and the ALK tyrosine kinase domain; host or cells: Ba/F3 (RIKEN), retroviral pMSCV-puro; the other entry of the earlier key: EML4 (Q9HC35, Echinoderm microtubule-associated protein-like 4)
Put plainly: Ba/F3 cell proliferation assay, EML4-ALK wt (variant 1). The settings on record: 72 hours, CellTiter-Glo. Type of experiment: cell-based. Put shortly:
as §1

A further experiment has as its target T9, TRKA-wt (Homo sapiens, UniProt P04629).
T9 construct: or TRKA-wt (1 nM, BPS Bio, 40280) kinase domains in buffer; purchased BPS Bio 40280
Put plainly: Biochemical kinase assay, TRKA-wt kinase domain. The note with it: apparent inhibitory constant, Morrison equation; ATP 2 mM in substrate solution; read-out: TRKA-wt Ki^app. The method, boiled down:
as §2

For another experiment, the target named is T10, Ba/F3 cells TPM3-TRKA (Homo sapiens, UniProt P04629).
T10 construct: host or cells: Ba/F3 (RIKEN), retroviral pMSCV-puro; the other entry of the earlier key: TPM3 (P06753, Tropomyosin alpha-3 chain)
Put plainly: Ba/F3 cell proliferation assay, TPM3-TRKA. The settings on record: 72 hours, CellTiter-Glo, read-out: TPM3-NTRK1-wt IC50. In kind it is cell-based. The method, boiled down:
as §1

T3 sequence (Q9UM73 1116-1392 L1196M/G1202R limits assumed): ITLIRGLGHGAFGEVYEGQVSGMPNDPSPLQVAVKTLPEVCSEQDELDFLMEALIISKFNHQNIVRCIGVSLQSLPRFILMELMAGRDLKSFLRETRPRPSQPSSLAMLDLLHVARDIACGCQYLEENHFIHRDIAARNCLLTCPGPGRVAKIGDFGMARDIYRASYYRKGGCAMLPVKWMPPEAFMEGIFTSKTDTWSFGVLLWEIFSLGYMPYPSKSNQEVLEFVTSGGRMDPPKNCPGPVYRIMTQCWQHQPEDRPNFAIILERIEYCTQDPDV
T4 sequence (P08922 1883-2347 limits assumed): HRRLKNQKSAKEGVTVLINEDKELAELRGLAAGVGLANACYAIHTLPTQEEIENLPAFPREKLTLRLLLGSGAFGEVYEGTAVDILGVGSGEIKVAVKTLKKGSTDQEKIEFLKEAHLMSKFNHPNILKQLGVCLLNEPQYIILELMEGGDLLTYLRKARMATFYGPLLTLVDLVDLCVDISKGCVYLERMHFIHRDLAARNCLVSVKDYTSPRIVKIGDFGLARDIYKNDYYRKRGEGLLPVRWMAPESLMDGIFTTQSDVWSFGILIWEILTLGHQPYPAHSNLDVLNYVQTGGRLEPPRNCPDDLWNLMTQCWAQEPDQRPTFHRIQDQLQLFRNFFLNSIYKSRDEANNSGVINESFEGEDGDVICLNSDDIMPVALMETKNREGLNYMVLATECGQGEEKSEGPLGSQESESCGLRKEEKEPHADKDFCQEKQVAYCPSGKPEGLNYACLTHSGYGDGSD
T2 sequence (Q9UM73 1116-1392 limits assumed): as the sequence (Q9UM73 1116-1392 L1196M/G1202R limits assumed) above, with M81L, R87G counted along it
T6 sequence (P08922 1883-2347 G2032R limits assumed): as the sequence (P08922 1883-2347 limits assumed) above, with G150R counted along it
T7 sequence (P08922 1945-2222 G2032R limits assumed): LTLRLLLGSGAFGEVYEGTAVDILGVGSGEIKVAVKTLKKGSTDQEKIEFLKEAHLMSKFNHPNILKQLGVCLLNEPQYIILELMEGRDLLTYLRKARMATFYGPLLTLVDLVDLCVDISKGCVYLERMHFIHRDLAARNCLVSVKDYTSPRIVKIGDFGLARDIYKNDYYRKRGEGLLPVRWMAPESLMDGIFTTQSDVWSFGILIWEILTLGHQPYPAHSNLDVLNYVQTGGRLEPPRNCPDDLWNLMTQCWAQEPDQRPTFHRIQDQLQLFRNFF
T5 sequence (P08922 1945-2222 limits assumed): as the sequence (P08922 1945-2222 G2032R limits assumed) above, with R88G counted along it
T9 sequence (P04629 510-781 limits assumed): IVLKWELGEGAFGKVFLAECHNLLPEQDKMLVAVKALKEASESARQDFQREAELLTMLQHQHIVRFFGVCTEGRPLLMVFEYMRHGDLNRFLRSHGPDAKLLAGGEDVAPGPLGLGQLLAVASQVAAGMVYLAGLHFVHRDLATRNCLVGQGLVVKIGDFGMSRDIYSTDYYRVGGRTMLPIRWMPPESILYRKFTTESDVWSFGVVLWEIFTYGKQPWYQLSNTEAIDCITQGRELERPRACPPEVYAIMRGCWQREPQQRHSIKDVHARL
T1 sequence (Q9UM73 with tags, fused parts or gaps L1196M/G1202R): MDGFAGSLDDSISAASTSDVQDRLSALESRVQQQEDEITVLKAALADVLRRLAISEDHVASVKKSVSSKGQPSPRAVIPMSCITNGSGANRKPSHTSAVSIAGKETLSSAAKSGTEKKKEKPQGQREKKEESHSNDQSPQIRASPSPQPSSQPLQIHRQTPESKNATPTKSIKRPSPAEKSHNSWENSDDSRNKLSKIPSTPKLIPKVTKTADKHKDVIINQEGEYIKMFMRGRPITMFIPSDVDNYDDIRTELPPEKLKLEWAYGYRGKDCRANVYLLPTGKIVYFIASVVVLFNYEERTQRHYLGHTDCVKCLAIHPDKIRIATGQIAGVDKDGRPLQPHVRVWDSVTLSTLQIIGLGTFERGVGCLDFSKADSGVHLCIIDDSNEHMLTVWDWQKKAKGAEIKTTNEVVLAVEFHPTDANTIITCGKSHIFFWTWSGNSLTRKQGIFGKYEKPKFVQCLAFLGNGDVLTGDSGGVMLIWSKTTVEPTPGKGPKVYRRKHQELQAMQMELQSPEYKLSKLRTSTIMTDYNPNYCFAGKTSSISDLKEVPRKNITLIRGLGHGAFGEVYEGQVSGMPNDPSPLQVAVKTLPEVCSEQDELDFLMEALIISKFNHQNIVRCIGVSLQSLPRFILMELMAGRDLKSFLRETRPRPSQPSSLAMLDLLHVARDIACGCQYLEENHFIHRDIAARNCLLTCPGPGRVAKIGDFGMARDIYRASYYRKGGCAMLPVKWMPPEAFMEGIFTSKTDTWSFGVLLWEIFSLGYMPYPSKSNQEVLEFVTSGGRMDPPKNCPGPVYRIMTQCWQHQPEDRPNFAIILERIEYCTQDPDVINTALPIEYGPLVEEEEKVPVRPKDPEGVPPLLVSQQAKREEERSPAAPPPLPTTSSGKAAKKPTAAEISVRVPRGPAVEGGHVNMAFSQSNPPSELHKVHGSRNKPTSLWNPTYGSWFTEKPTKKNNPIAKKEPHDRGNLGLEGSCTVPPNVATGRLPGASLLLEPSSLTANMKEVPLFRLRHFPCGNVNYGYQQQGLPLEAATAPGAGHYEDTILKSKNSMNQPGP
T10 sequence (P04629 510-796 limits assumed): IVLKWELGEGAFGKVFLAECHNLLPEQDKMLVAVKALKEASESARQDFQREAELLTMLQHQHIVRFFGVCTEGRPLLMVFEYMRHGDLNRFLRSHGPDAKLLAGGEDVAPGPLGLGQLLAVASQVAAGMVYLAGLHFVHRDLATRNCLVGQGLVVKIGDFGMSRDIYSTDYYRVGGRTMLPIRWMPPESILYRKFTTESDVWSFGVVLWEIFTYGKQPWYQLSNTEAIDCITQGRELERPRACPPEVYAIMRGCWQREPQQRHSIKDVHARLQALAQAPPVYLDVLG
T8 sequence (Q9UM73 with tags, fused parts or gaps): as the sequence (Q9UM73 with tags, fused parts or gaps L1196M/G1202R) above, with M635L, R641G counted along it

On to `CCn1nc(C)c2c1-c1cnc(N)c(c1)O[C@H](C)c1cc(F)ccc1-c1ncnn1C2` [Example 56, (19R)-3-ethyl-16-fluoro-5,19-dimethyl-20-oxa-3,4,8,9,11,23-hexaazapentacyclo[19.3.1.0^2,^6.0^8,^12.0^13,^18]pentacosa-1(24),2(6),4,9,11,13,15,17,21(25),22-decaen-22-amine], for which the IC50 – broadly, the concentration needed to halve the response being measured – in experiment [1] was in the range of 50 to 500 nM; in experiment [3], 0.1 to 50 nM; in experiment [4], 0.1 to 50 nM; in [5], 0.1 to 50 nM; on Ba/F3 cells TPM3-TRKA it was 50 to 500 nM. For the same molecule, the TPM3-NTRK1-wt/CD74-ROS1-G2032R selectivity ratio result in experiment [2] is “A (bin A for very high selectivity, ratio >30-fold)”. The TPM3-NTRK1-wt/CD74-ROS1-wt selectivity ratio entry in [2] was “A (bin A for very high selectivity, ratio >30-fold)”. Also, the TPM3-NTRK1-wt/EML4-ALK-L1196M-G1202R selectivity ratio entry in [2] is given as “C (bin C for moderate selectivity, ratio ≥1)”. Moreover, the TPM3-NTRK1-wt/EML4-ALK-wt selectivity ratio result in experiment [2] is on record as “B (bin B for high selectivity, ratio >10-fold)”. Further, the Ki is less than 50 nM on ALK-wt; less than 50 nM on ALK L1196M/G1202R; less than 50 nM at ROS1-wt; less than 50 nM on ROS1-G2032R; 50 to 500 nM at TRKA-wt.

In the case of `CCc1noc2c1-c1cnc(N)c(c1)O[C@H](C)c1cc(F)ccc1-c1nnnn1C2` [Example 58, (19R)-3-ethyl-16-fluoro-19-methyl-5,20-dioxa-4,8,9,10,11,23-hexaazapentacyclo[19.3.1.0^2,^6.0^8,^12.0^13,^18]pentacosa-1(24),2(6),3,9,11,13,15,17,21(25),22-decaen-22-amine], the IC50 is greater than 500 nM in experiment [1]; 0.1 to 50 nM in [3]; 50 to 500 nM in [4]; 50 to 500 nM in experiment [5]; 50 to 500 nM at Ba/F3 cells TPM3-TRKA. In experiment [2], the TPM3-NTRK1-wt/CD74-ROS1-G2032R selectivity ratio entry is on record as “C (bin C for moderate selectivity, ratio ≥1)”. Moreover, the TPM3-NTRK1-wt/CD74-ROS1-wt selectivity ratio entry in experiment [2] is on record as “A (bin A for very high selectivity, ratio >30-fold)”. The TPM3-NTRK1-wt/EML4-ALK-L1196M-G1202R selectivity ratio result in experiment [2] is “D (bin D for low selectivity, ratio <1)”. Further, the TPM3-NTRK1-wt/EML4-ALK-wt selectivity ratio entry in experiment [2] is “C (bin C for moderate selectivity, ratio ≥1)”. The Ki was less than 50 nM at ALK-wt; 50 to 500 nM at ALK L1196M/G1202R; less than 50 nM at ROS1-wt; 50 to 500 nM at ROS1-G2032R; 50 to 500 nM at TRKA-wt.

Regarding `C[C@H]1Oc2cc(cnc2N)-c2c(c(Cl)nn2CC(F)F)Cc2nn(C)nc2-c2ccc(F)cc21` [Example 60, (19R)-5-chloro-3-(2,2difluoroethyl)-16-fluoro-10,19-dimethyl-20-oxa-3,4,9,10,11,23-hexaazapentacyclo[19.3.1.0^2,^6.0^8,^12.0^13,^18]pentacosa-1(24),2(6),4,8,11,13,15,17,21(25),22-decaen-22-amine], the IC50 in experiment [1] was greater than 500 nM; in [3], 0.1 to 50 nM; in [4] it was 0.1 to 50 nM; in experiment [5] it was 50 to 500 nM; at Ba/F3 cells TPM3-TRKA, greater than 500 nM. Also, in experiment [2], the TPM3-NTRK1-wt/CD74-ROS1-G2032R selectivity ratio result is “A (bin A for very high selectivity, ratio >30-fold)”. In addition, in [2], the TPM3-NTRK1-wt/CD74-ROS1-wt selectivity ratio result is on record as “A (bin A for very high selectivity, ratio >30-fold)”. For the same molecule, the TPM3-NTRK1-wt/EML4-ALK-L1196M-G1202R selectivity ratio entry in experiment [2] is on record as “B (bin B for high selectivity, ratio >10-fold)”. Also, in [2], the TPM3-NTRK1-wt/EML4-ALK-wt selectivity ratio entry is “A (bin A for very high selectivity, ratio >30-fold)”. The Ki on ALK-wt was 50 to 500 nM; on ALK L1196M/G1202R, 50 to 500 nM; on ROS1-wt, less than 50 nM; on ROS1-G2032R, 50 to 500 nM; at TRKA-wt, greater than 500 nM.
